Earlier results as cited in article PMC11767697, “Radiocobalt-Labeling of a Polypyridylamine Chelate Conjugated to GE11 for EGFR-Targeted Theranostics” (Molecules, 2025).

Details: Co(II) complex
Protocol: The promising therapeutic properties of the AEE, ^58mCo (T1/2 = 9.1 h), have been theoretically predicted and confirmed by in vitro and in vivo experiments using PSMA and octreotide conjugates of DOTA [[2],[11 ...

| Compound | stability (binding) constant Log(β) (comparable conditions) | stability constant Log(β) |
| --- | --- | --- |
| O=C([O-])CN(CCN(CC(=O)[O-])CC(=O)[O-])CC(=O)[O-].[Co+2] [[Co^II(EDTA)]^2-] | 16.1 | – |
| [Co+2].c1ccc(CN(CCN(Cc2ccccn2)Cc2ccccn2)Cc2ccccn2)nc1 [[Co^II(TPEN)]^2+] | – | 16.6 |
